One experiment addresses T1, human EGF receptor (Homo sapiens, UniProt P00533).
T1 construct: expressed in transfected cells; host or cells: NIH3T3 clone C7 (EGFR/C7; mouse fibroblasts)
In words: EGF-receptor whole cell kinase assay (EGFR-3T3). Format: cell-based. The method, then:
(§1) The following target cells were used for cellular kinaseassays: NIH3T3 clone C7 (Honegger et al., supra) engineered to over-express human EGF receptor; NIH3T3 cells engineered to over-express a chimeric receptor containing the EGFR extracellular domain and the HER2 intracellular kinase domain; the human mammary carcinoma line BT474 (ATCC HTB2) expressing HER2; and the human glioblastoma line U1242 that expresses PDGFR-β. Growth assays were carried out using human mammary epithelial SKBR3 (ATCC HTB30) cells, SKOV3 (ATCC HTB77) human ovarian cancer cell line, A431 cells, MCF7 human breast carcinoma cells, MCF7 cells overexpress the HER2 kinase (MCF7-HER2), NIH3T3 cells, and NIH3T3 cells overexpressing the HER2 kinase (3T3-HER2).
Unless otherwise stated the effect of various compounds on receptor tyrosine kinases were assayed as described in this section.
1. EGF-receptor Whole Cell Kinase Assay
EGFR kinase activity (EGFR-3T3 assay) in whole cells was measured as described below:
The following protocol was used:
A. Coat ELISA plates (Corning, 96 well, Cat. #25805-96) with 05-101 antibody at 0.5 μg per well in PBS, 150 μl final volume/well, and store overnight at 4° C. Coated plates are good for up to 10 days when stored at 4° C.
B. On day of use, remove coating buffer and replace with blocking buffer (5% Carnation Instant Non-Fat Dry Milk in PBS). Incubate the plate, shaking, at room temperature (about 23° C. to 25° C.) for 30 minutes. Just prior to use, remove blocking buffer and wash plate 4 times with TBST buffer.
A. EGFR/C7 cell line (Honegger, et al., Cell 51:199-209, 1987) can be use for this assay.
B. Choose dishes having 80-90% confluence for the experiment. Trypsinize cells and stop reaction by adding 10% CS DMEM medium. Suspend cells in DMEM medium (10% CS DMEM medium) and centrifuge once at 1000 rpm, and once at room temperature for 5 minutes.
C. Resuspend cells in seeding medium (DMEM, 0.5% bovine serum), and count the cells using trypan blue. Viability above 90% is acceptable. Seed cells in DMEM medium (0.5% bovine serum) at a density of 10,000 cells per well, 100 μl per well, in a 96 well microtiter plate. Incubate seeded cells in 5% CO2 at 37° C. for about 40 hours.
A. Check seeded cells for contamination using an inverted microscope. Dilute drug stock (10 mg/ml in DMSO) 1:10 in DMEM medium, then transfer 5 μl to a test well for a final drug dilution of 1:200 and a final DMSO concentration of […]. Control wells receive DMSO alone. Incubate in 5% CO2 at 37° C. for one hour.
B. Prepare EGF ligand: dilute stock EGF in DMEM so that upon transfer of 10 μl dilute EGF (1:12 dilution), 25 nM final concentration is attained.
C. Prepare fresh HNTG* sufficient for 100 μl per well; and place on ice.
D. After two hours incubation with drug, add prepared EGF ligand to cells, 10 μl per well, to yield a final concentration of 25 nM. Control wells receive DMEM alone. Incubate, shaking, at room temperature, for 5 minutes.
E. Remove drug, EGF, and DMEM. Wash cells twice with PBS. Transfer HNTG* to cells, 100 μl per well. Place on ice for 5 minutes. Meanwhile, remove blocking buffer from other ELISA plate and wash with TBST as described above.
F. With a pipette tip securely fitted to a micropipettor, scrape cells from plate and homogenize cell material by repeatedly aspirating and dispensing the HNTG* lysis buffer. Transfer lysate to a coated, blocked, and washed ELISA plate. Incubate shaking at room temperature for one hour.
G. Remove lysate and wash 4 times with TBST. Transfer freshly diluted anti-Ptyr antibody to ELISA plate at 100 μl per well. Incubate shaking at room temperature for 30 minutes in the presence of the anti-Ptyr antiserum (1:3000 dilution in TBST).
H. Remove the anti-Ptyr antibody and wash 4 times with TBST. Transfer the freshly diluted TAGO anti-rabbit IgG antibody to the ELISA plate at 100 μl per well.

The next experiment concerns the target T2, HER2 (Homo sapiens, UniProt P04626).
T2 construct: the human mammary carcinoma line BT474 (ATCC HTB2) expressing HER2; endogenous in cells; host or cells: BT474 human mammary carcinoma cells
In words: HER2-BT474 whole cell kinase ELISA. Format: cell-based. The procedure:
HER2-BT474 assays measuring whole cell HER2 activity was carried out as described below:
All the following steps are at room temperature and aseptically, unless stated otherwise. All ELISA plate washing is by rinsing with distilled water three times and once with TBST.
Incubate the cells in 5% CO2 at 37° C. overnight.
2. ELISA Plate Coating and Blocking
(In an ELISA, binding on a coated surface is turned into a signal by an enzyme label.)

In experiment [1] the test system is MCF7 cells overexpress the HER2 kinase (MCF7-HER2). In words: MCF-7/HER-2 SRB growth assay. Format: cell-based, human. Conditions: Table VI, 0.5% FBS, four days.
Source text: as §1, with “This example illustrates the ability of the exemplary compounds to inhibit receptor tyrosine kinases, such as HER2 and/or EGFR. The” for “The”
(§2) MCF-7 cells are seeded at 2000 cells/ well in a 96-well flat bottom plate in normal growth media, which was 10% FBS/RPMI supplemented with 2 mM Glutamine. The plate of cells is incubated for about 24 hours at 37° C. after which it receives an equal volume of compound dilution per well making the total volume per well 200 μl. The compound is prepared at 2 times the desired highest final concentration and serially diluted in the normal growth media in a 96-well round bottom plate and then transferred to plate of cells. DMSO serves as the vector control up to 0.2% as final concentration. The cells are then incubated at 37° C. in a humidified 5% CO2 incubator.
(§3) Four days following dosing of compound, the media is discarded and 200 μl/well of ice-cold 10% TCA (Trichloroacetic Acid) is added to fix cells. After 60 minutes at 4° C., the TCA is discarded and the plate is rinsed 5 times with water. The plate is then air-dried and 100 μl/well of 0.4% SRB (Sulforhodamine B from Sigma) in 1% Acetic Acid is added to stain cells for 10 minutes at room temperature. The SRB is discarded and the plate is rinsed 5 times with 1% Acetic Acid. After the plate is completely dried, 100 μl/well of 10 mM Tris-base is added to solubilize the dye. After 5 to 10 minutes, the plate is read on a Dynatech ELISA Plate Reader at dual wavelengths at 570 nm and 630 nm.
8. MCF-7/HER-2 SRB Growth Assay
The protocol is basically the same as that above (for the MCF-7 Growth Assay) except that immediately before the compound is added, the normal growth media is removed and 0.5% FBS/RPMI supplemented with 2 mM Glutamine is added onto the cells. The compound is also prepared in this 0.5% serum media. The plate of cells is incubated for four days and developed as usual.
(In general: Sulforhodamine B stains cellular protein and so reports cell mass.)

The subject of experiment [2] is MCF7 human breast carcinoma cells. As to the kind of experiment: MCF-7 SRB growth assay. It is filed as cell-based. Conditions: Table VI, 10% FBS, four days.
Source text: as §1, with “This example illustrates the ability of the exemplary compounds to inhibit receptor tyrosine kinases, such as HER2 and/or EGFR. The” for “The”
6. MCF-7 SRB Growth Assay
as §2, §3

[3] abbreviates: Table V, read-out: Estimated IC50 Cellular Kinase Assays EGFR (EGF-3T3).
[4] abbreviates: Table V, read-out: Estimated IC50 Cellular Kinase Assays HER2 (BT474).
Where [5] appears, read: Table VI, cellular kinase assay, read-out: EGFR-3T3.
The mark [6] stands for this setting: Table VI, cellular kinase assay, read-out: HER2-BT474.
Setting [7] is: Estimated IC50 Cellular Kinase Assays HER2 (BT474), Table V.
Setting [8] is: HER2-BT474, Table VI, cellular kinase assay.
Where [9] appears, read: Table III, cellular kinase assay, class symbol, read-out: EGFR.
Setting [10] is: Table III, cellular kinase assay, class symbol, read-out: HER2.

We go through 17 compounds from US6596878B2, “Methods and compositions for inhibiting cell proliferative disorders” (Yissum Research & Development Company of the Hebrew …, priority 1994, dated 2003).

Read-outs that look alike come from different tables or passages of the source.

T1 sequence (P00533 25-1210): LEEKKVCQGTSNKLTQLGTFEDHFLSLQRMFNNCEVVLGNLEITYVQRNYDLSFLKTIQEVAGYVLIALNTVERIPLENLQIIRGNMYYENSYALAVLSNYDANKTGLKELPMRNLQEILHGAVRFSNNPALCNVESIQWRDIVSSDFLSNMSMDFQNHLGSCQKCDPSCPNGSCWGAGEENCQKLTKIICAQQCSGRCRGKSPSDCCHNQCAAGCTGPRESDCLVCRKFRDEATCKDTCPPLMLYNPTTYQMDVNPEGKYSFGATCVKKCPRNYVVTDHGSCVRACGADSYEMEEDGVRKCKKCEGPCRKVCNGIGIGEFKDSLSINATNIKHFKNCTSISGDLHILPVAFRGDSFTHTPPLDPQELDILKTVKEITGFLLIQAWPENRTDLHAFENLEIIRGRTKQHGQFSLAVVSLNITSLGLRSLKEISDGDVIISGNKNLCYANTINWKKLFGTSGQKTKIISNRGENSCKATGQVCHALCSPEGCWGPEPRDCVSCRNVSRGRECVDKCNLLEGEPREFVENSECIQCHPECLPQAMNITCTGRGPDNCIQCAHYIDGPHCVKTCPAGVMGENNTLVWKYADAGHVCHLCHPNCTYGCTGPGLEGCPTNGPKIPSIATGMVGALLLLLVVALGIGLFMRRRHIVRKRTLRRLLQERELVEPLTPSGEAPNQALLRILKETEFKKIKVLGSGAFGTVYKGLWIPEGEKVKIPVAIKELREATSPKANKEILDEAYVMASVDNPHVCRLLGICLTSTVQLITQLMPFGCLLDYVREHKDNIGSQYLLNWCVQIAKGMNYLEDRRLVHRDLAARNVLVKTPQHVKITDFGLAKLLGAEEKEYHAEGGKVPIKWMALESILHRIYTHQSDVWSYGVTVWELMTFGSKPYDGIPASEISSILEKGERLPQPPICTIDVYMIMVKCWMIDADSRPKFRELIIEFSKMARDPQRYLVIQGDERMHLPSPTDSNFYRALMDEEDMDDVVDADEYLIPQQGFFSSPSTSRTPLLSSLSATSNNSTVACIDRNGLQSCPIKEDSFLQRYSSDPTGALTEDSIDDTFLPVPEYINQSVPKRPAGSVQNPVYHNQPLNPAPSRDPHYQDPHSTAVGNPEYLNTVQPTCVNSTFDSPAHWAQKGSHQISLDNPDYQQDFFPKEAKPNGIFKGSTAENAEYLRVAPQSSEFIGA
T2 sequence (P04626 23-1255): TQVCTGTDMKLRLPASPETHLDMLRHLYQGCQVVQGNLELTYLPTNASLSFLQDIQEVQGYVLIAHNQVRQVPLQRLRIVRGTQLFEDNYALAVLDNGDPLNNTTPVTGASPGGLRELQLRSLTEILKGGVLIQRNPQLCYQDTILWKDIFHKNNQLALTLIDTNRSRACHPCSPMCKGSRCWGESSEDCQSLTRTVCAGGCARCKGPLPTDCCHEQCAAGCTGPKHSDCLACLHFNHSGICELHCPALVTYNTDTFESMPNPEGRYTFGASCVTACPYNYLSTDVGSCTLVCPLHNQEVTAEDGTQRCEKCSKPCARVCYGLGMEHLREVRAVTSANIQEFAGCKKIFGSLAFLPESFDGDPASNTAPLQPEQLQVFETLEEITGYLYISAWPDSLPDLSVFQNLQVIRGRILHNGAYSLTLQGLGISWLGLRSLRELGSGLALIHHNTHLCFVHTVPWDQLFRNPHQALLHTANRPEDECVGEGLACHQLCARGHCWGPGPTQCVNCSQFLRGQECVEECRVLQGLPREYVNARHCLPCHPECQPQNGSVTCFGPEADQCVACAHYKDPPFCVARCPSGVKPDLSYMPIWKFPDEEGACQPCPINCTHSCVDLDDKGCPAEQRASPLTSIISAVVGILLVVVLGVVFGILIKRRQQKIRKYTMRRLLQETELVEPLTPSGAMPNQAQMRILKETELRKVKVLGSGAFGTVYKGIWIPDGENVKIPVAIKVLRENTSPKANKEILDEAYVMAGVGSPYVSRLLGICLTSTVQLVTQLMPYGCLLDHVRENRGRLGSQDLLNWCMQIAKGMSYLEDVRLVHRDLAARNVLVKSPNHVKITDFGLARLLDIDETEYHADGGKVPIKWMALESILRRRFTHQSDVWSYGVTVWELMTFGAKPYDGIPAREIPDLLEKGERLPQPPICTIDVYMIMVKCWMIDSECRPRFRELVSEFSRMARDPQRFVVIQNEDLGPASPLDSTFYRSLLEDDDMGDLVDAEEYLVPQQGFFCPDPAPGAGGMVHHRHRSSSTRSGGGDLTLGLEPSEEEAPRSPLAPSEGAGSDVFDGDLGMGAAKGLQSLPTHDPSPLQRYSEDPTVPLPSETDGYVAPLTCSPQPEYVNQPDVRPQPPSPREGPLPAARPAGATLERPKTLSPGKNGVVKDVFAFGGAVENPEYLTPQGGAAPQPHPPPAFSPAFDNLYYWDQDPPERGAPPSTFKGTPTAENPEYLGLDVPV

On to `Cc1cc2nc3c(nc2cc1C)-c1ccccc1C3=O` [Compound R15], for which the IC50 at human EGF receptor (setting [3]) is 25 µM; on HER2 (setting [4]) it was above 50 µM.

`N#C/C(=C\c1ccc([N+](=O)[O-])c(O)c1)C(=O)NCCCc1ccccc1` [Compound M39, (E)-3-(3-Hydroxy-4-nitrophenyl)-2-[(3-phenyl-n-propyl)aminocarbonyl]acrylonitrile]: the IC50 on human EGF receptor (setting [5]) turned out to be 6.8 µM; at HER2 (setting [6]), 39 µM.

`N#CC(C#N)=NNc1cccc(Cl)c1` [Compound Q11]: the IC50 at human EGF receptor (Estimated IC50 Cellular Kinase Assays EGFR (EGF-3T3), Table V) is above 50 µM; on HER2 (setting [7]), 11.1 µM. The “inhibition of HER2 activity” value against HER2 (significantly inhibit = IC50 less than 50 μM) is “significantly inhibited”.

For `N#CC(C#N)=Cc1cc(O)c(O)c(I)c1` [Compound M12], the IC50 on human EGF receptor (setting [3]) is 13.4 µM; on human EGF receptor (setting [5]), 13.4 µM; on HER2 (setting [4]), above 50 µM; on HER2 (setting [6]), above 50 µM.

Consider `Cc1cc(/C=C(\C#N)S(=O)(=O)/C(C#N)=C/c2cc(C)c(O)c(C)c2)cc(C)c1O` [Compound M38], for which the IC50 on human EGF receptor (setting [5]) is above 100 µM; on HER2 (setting [6]) it was 14 µM; in experiment [1] it was above 100 µM; in experiment [2], above 100 µM. For the same compound, at HER2 (cellular assays of the Examples, versus analogous compounds having bulkier R1 and R3 groups), the “activity in cellular assays” value was “less activity”.

Take `CC(C)c1cc(/C=C(\C#N)C(=O)Nc2ccc(C(F)(F)F)cc2)cc(C(C)C)c1O` [Compound M28, (E)-3-(3,5-Diisopropyl-4-hydroxyphenyl)-2-[(4-trifluoromethyl)phenylaminocarbonyl]acrylonitrile]: the IC50 on HER2 (setting [6]) was determined as 2.2 µM; in experiment [1] (Homo sapiens, MCF7, 96 h) it was 2 µM; in experiment [2] (Homo sapiens, MCF7, 96 h), 12 µM.

With `CC(C)(C)c1cc(C=C(C#N)C#N)cc(Br)c1O` [Compound M14], the IC50 at human EGF receptor (setting [3]) was 37.2 µM; on human EGF receptor (setting [5]) it was 37.2 µM; at HER2 (setting [4]), above 50 µM; on HER2 (setting [6]), above 50 µM.

For the compound `N#C/C(=C\c1ccc(O)c(O)c1)C(=O)NCCCCc1ccccc1` [Compound M10], the IC50 at human EGF receptor (setting [3]) is above 50 µM; at human EGF receptor (setting [5]) it was at least 50 µM; at HER2 (setting [8]) it was 30.6 µM; on HER2 (setting [4]), 30.6 µM.

For `CC(C)c1cc(/C=C(\C#N)C(N)=S)cc(C(C)C)c1O` [Compound M25, (E)-2-Aminothiocarbonyl-3-(3,5-diisopropyl-4-hydroxyphenyl)acrylonitrile], the IC50 is above 100 µM on human EGF receptor (setting [5]) and 3.1 µM at HER2 (setting [6]).

As to `Cc1ccc2ncnc(Nc3ccc4c(c3)OCO4)c2c1` [Compound P14a], the IC50 at human EGF receptor (setting [9]) was below 50 µM; at human EGF receptor (setting [3]), 22.2 µM; on HER2 (setting [10]) it was above 50 µM; on HER2 (setting [4]), above 50 µM.

Take `CC(C)c1cc(C=C(C#N)C#N)cc(C(C)C)c1O` [Compound M19]: the IC50 was above 50 µM at human EGF receptor (setting [3]), above 50 µM at human EGF receptor (setting [5]), 10.6 µM on HER2 (setting [7]) and 10.6 µM against HER2 (setting [8]).

For the compound `Cc1ccc2ncnc(Nc3ccc4c(c3)OCO4)c2c1` [Compound P14b], the IC50 on human EGF receptor (setting [9]) is below 50 µM; at human EGF receptor (setting [3]) it was 20.9 µM; at HER2 (setting [10]) it was above 50 µM; on HER2 (setting [4]), above 50 µM.

On to `Cc1cc2nc(CBr)c(-c3ccccc3)nc2cc1C` [Compound R9], for which the IC50 on human EGF receptor (setting [3]) is 35.5 µM; on HER2 (setting [4]) it was 20.7 µM.

For the compound `COc1cc2ncnc(Nc3cccc(Cl)c3)c2cc1OC` [Compound P13a], the IC50 was below 50 µM on HER2 (setting [10]) and 1.6 µM on HER2 (setting [4]).

As for `Clc1cc2ncc(-c3ccccc3)nc2cc1Cl` [Compound R14], the IC50 on human EGF receptor (setting [3]) and at HER2 (setting [4]) was 25 µM each time.

For the compound `CC(C)(C)c1cc(C=C(C#N)c2[nH]nc(N)c2C#N)cc(C(C)(C)C)c1O` [Compound M17], the IC50 on human EGF receptor (setting [3]) is 8.65 µM; on human EGF receptor (setting [5]), 8.65 µM; on HER2 (setting [4]), 8.58 µM; at HER2 (setting [6]), 8.58 µM.

As for `N#C/C(=C\c1cc(O)c(O)c(I)c1)C(=O)NCc1ccccc1` [Compound M23], the figures for the IC50 at human EGF receptor (setting [5]) and at HER2 (setting [6]) were 17 µM and 26 µM, respectively.
